From patent US20080220416A1, “Compositions for Inhibiting Cell Growth and Inducing Apoptosis in Cancer Cells and Methods of Use Thereof” (THE BOARD OF TRUSTEES OF THE UNIVERSITY OF ILLINOI, priority 2004, published 2008)
Square brackets hold non-standard residues; d marks the D form. Peptide text beside a SMILES is read from it. * marks the point of attachment. Nle = CCCC[C@H](N)C(=O)O; Cbz = O=C(OCc1ccccc1)*

What was measured:
[1] = test system: CaSki human cervical cancer cells; assay: Apoptosis of CaSki cells (Annexin V flow cytometry, caspase 3 Western blot); format: cell-based
Method: For the apoptosis measurement assay, the transformed CaSki human cervical cancer cells were treated with DMSO, or 25 μM, 50 μM or 100 μM cisplatin for 24 hours. After cisplatin treatment, the cells were collected and stained with fluorescein-conjugated annexin V and propidium iodide, using the APO TARGET Annexin-V FITC Apoptosis Kit (BioSource International, Inc., Camarillo, Calif.) according to the manufacturer's instructions. After the staining, the cells were sorted by flow cytometry with a FACScan instrument (Becton-Dickinson), Annexin-V positive stained cells were counted as apoptotic cells. Cells that were propidium iodide positive but annexin V negative were not counted as apoptotic cells.
To determine whether z-Leu-Leu-Nle-CHO induces cell death via apoptosis, CaSki cells were treated with various concentrations of z-Leu-Leu-Nle-CHO for 18 h and then either stained with Annexin-V-FITC as described above, or subject to Western blot analysis using antibody to both the pro-enzyme and active form of caspase-3 (Santa Cruz Biotechnology, Santa Cruz, Calif.) as described above.

[2] = test system: MDA-MB231 breast cancer cells; assay: Cytotoxicity and growth assay in MDA-MB231 breast cancer cells (SRB, TCA-precipitated protein); format: cell-based, human
Method: An invasive, estrogen-independent breast cancer cell line that spontaneously expresses high levels of Notch-1 and -4, MDA-MB231, and normal human breast cells were used to investigate whether inhibition of Notch activation or expression affects the biological behavior of breast cancer cells. Human Mammary Epithelial Cells (HMEC) were purchased from Clonetics and cultured in mammary epithelial cell basal medium (MEBM) supplemented with 52 μg/ml Bovine Pituitary Extract […], […] human recombinant Epidermal Growth Factor (hEGF), 5 μg/ml insulin, 0.5 μg/ml Hydrocortisone, 50 μg/ml Gentamicin and 50 μg/ml Amphotericin-B. MDA-MB231 (ATCC, Rockville, Md.) were cultured in DMEM medium with 10% FBS. Notch expression in HMEC and MDA-MB231 cells was silenced using highly specific RNAi. Double-stranded synthetic 21-mer RNA oligonucleotides (siRNAs) were purchased from Dharmacon (Lafayette, Colo.). […] Sequence specificity was determined by BLAST searches which determined the uniqueness of the sequences. Transfection of siRNAs was performed using Oligofectamine (Invitrogen) as recommended by the siRNA manufacturer (Dharmacon). Transfection efficiency was optimized and followed on parallel wells using DNA double stranded oligos of identical sequence to the siRNAs, labeled with biotin on one strand. Transfected cells were identified by Streptavidin-horseradish peroxidase staining (Vectastain) and counted. Transfection efficiencies around 80% were routinely obtained.
Cytotoxicity and growth of transfected cells were estimated by a standard assay used for cancer drug screening, through the total amount of TCA-precipitated cell proteins after drug treatment (Likhitwitayawuid, K et al., 1993, J Nat Prod 56:30-38): 200 μl of cell suspension (10^5 cells/ml) were added to each well in a 96-well plate. After incubation at, 37° C., in 5% CO2 (30 minutes to 72 hours depending on the time course chosen), 50 μl 50% trichloroacetic acid was added to each well. After incubation at 4° C. for 1 hour, precipitates were washed with water 4-5 times and air dried overnight. One hundred μl of SRB solution (0.4% sulforhodamine B in 1% acetic acid, filtered before use) was added to each well for 30 minutes. Wells were washed with 1% acetic acid 4-5 times and air dried. Two hundred μl 10 mM Tris base was added to each well. Plates were shaken for 5-10 minutes and OD at 490 nm (OD490) was recorded via ELISA reader. To assay matrix invasion, 300 μl of cell suspension (10^6 cells/mL in serum-free medium) were added to invasion inserts (BioCoat Matrigel Invasion Chambers, Becton Dickinson, Bedford, Mass.) and incubated for 22 hours at 37° C., 5% CO2. […] After removal of the non-invading cells from the interior of the inserts, stained invading cells were lysed in 10% acetic acid and OD595 was determined. […]

[3] = test system: MDA-MB231 cells; assay: Cell cycle distribution of MDA-MB231 cells by flow cytometry; format: cell-based, human
Method: Cell cycle analysis was performed to further study the effects of inhibition of Notch signaling in breast cancer cells. MDA-MB231 cells were treated overnight with 0-10 μM z-Leu-Leu-Nle-CHO prior to cell cycle distribution analysis by flow cytometry. Alternatively, MDA-MB231 cells were transfected with Notch-1, Notch-4 or control siRNA as described above in Example 15. For cell cycle distribution analysis by flow cytometry, z-Leu-Leu-Nle-CHO- or siRNA-treated cells (10^6) were pelleted and washed twice in PBS. Cells were then fixed in 80% methanol and stored at −20° C. until use. Fixed cells were pelleted and washed twice in PBS, and resuspended in 50 μl PI:PBS solution (50 μg/ml PI). After RNase A (100 μg/ml) treatment at 37° C. for an hour, cells were analyzed by flow cytometry using a FACScalibur instrument.

Compound | caspase 3 activation ([1]; 18 h) | mode of cell death (Annexin V flow cytometry) ([1]; 18 h) | IC50 ([2]; Homo sapiens, MDA-MB-231, MDA-MB231 (p53-mutant, ERα-negative), 48 h, read-out: IC50, cell growth inhibition) [nM] | cell cycle distribution ([3]; 0-10 μM overnight) | effect on cisplatin-induced apoptosis ([1]; cisplatin 25, 50 or 100 μM for 24 hours) | proliferation ([2]; MDA-MB231, siRNA transfection) | cell cycle distribution ([3]; siRNA transfection)
CCCC[C@@H](C=O)NC(=O)[C@H](CC(C)C)NC(=O)[C@H](CC(C)C)NC(=O)OCc1ccccc1 [z-Leu-Leu-Nle-CHO, N-benzyloxycarbonyl-leucyl-leucyl-norleucinal] (Cbz-Leu-Leu-[Nle]-aldehyde) | dose-dependent caspase 3 activation | primarily apoptotic | 1300 | accumulation of cells in the G2/M stage of the cell cycle | – | – | –
5′-AAGTGTCTGAGGCCAGCAAGA-3′ [Notch-1 siRNA] | – | – | – | – | significantly enhances cisplatin-induced apoptosis | inhibits proliferation of MDA-MB231 breast cancer cells | accumulation of cells in G2/M was maximal at 24 hours
